# According to paper PMC11883664, “Expansion of the diversity of dispersin scaffolds” (Acta Crystallographica Section D: Structural Biology, 2025):
# T1: DispLp (Lactiplantibacillus paraplantarum, UniProt A0AAD0TQY4)
# T1 construct: gene LP667_05900; mature polypeptide with polyhistidine tag
# T1 sequence (A0AAD0TQY4 31-361): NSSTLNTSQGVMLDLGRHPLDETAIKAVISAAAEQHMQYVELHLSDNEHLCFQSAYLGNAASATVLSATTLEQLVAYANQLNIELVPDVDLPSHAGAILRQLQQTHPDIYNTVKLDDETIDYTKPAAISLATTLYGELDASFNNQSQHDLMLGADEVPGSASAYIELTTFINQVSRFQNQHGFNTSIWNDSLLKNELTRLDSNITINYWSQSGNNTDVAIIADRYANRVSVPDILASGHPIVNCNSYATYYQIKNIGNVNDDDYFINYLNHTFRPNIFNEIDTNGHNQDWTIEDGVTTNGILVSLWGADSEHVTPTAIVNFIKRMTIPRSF
# B1: DispTs2 (Terribacillus saccharophilus) (protein)
# chain: QDQEKGITIDISRKYYSIKTLKAIVDEISANGGDYLQLHFSDNESYAIASEFLGQNSENPNSAYLTKKELLSLIAYSNDRNIMVIPDIDLPAHSKGWLNIMKEKDSGLYTDIVTDYSEDTLDYHNNAVALYTANQLLDEVLDLFYQPKFAGKQRIVLGGDEVPGSGAHQTDFIRFMNQIAKTAKASNYEPQMWNDSITPEGIQNLDRSFSILYWKQSTLSNGAQSLDVQDFEENGLSVYNYNAYSLYFLPSTRFTQEDITEQIDYMKWAYAYNKFFYISDYYKQVDTPNVKGSSLVFWGEHANDLSQERLLKQEKPLIQNFLGL
# Key:
# [1] = target: T2, DispSf; assay: ITC; format: binding, Mammaliicoccus fleurettii
# T2 construct: mature polypeptide with polyhistidine tag
# [2] = target: T1, DispLp; assay: crystal structure ([…] Å) and ITC; format: binding
# [3] = target: T3, DispTs2 (Terribacillus saccharophilus, UniProt A0A075LPR4); assay: ITC and crystal structure ([…] Å); format: binding
# T3 construct: gene GZ22_15930; mature polypeptide with polyhistidine tag
# [4] = target: T3, DispTs2; assay: crystal structure by soaking ([…] Å); only the NAG-thiazoline unit (NGT) modelled; format: binding
# [5] = substrate: CC(=O)N[C@H]1[C@H](Oc2ccc3c(C)cc(=O)oc3c2)O[C@H](CO)[C@@H](O)[C@@H]1O; assay: purified protein
molecule,measurement,setting,value
"CC(=O)N[C@H]1CN2CC[C@H](O)[C@@H]2[C@@H](O)[C@@H]1O [6-Ac-Cas, 6-acetamido-6-deoxy-castanospermine]",Kd,[1],15 µM
same,Kd,[2],1120 µM
same,Kd,[3],6 µM
"CC(=O)N[C@H]1[C@H](OC[C@H]2O[C@@H]3SC(C)=N[C@@H]3[C@@H](O)[C@@H]2O)O[C@H](CO)[C@@H](O)[C@@H]1O [di-NAG-thiazoline, GlcNAc-β(1,6)-GlcNAc-thiazoline]",crystal structure by soaking (2.17 Å); only the NAG-thiazoline unit (NGT) modell,[4],"The electron density for the first unit of di-NAG-thiazoline (corresponding to GlcNAc-thiazoline, NGT in the PDB dictionary) was well defined"
B1,Km,[5],2500 ± 100 µM
